From patent publication US4130645A (priority 1978, dated 1978)
Where “and” joins values, the source holds several entries; their conditions need not be identical. Equal entries are not always repeated. Structures can show the parent of a compound that is named as a salt.

Test system: Venturia inaequalis (Cke.) Wint.
Assay: whole plant or invertebrate
Type: in vivo
Conditions: Venturia inaequalis, foliar, read-out: Apple Scab Percent Disease Control

SMILES	pest or weed control at 500 ppm [%]	pest or weed control at 200 ppm [%]
O=[N+]([O-])Nc1ccccc1Cl	93	–
O=[N+]([O-])Nc1cccc(Cl)c1Cl [drawing 64]	76	67
CS(=O)(=O)c1ccc(N[N+](=O)[O-])cc1 [drawing 66]	76	–
O=[N+]([O-])Nc1c(Br)cc(C(F)(F)F)cc1Br [drawing 67]	76	–
CC(=O)Nc1cc(Cl)c(N[N+](=O)[O-])c(Cl)c1 [drawing 68]	76	–
O=[N+]([O-])Nc1c(Cl)c(Cl)cc(Cl)c1Cl [drawing 69]	76	–
COC(=O)CN(c1c(Cl)c(Cl)cc(Cl)c1Cl)[N+](=O)[O-] [drawing 73]	96	83

Same assay, conditions: in vivo

SMILES	activity against apple scab
O=[N+]([O-])Nc1c(Cl)c(Cl)cc(Cl)c1Cl [2,3,5,6-tetrachlorophenylnitramine N-barium salt]	active
O=[N+]([O-])Nc1cccc(Cl)c1Cl [2,3-dichlorophenylnitramine]	active
O=[N+]([O-])Nc1ccc(Cl)cc1Cl [2,4-dichlorophenylnitramine]	active
CC(=O)Nc1cc(Cl)c(N[N+](=O)[O-])c(Cl)c1 [2,6-dichloro-4-acetamidophenylnitramine]	active
CS(=O)(=O)c1ccc(N[N+](=O)[O-])cc1 [4-methylsulfonylphenylnitramine]	active
CC(C)N(c1c(Cl)c(Cl)cc(Cl)c1Cl)[N+](=O)[O-] [--(CH(CH3)2]	active
COC(=O)CN(c1c(Cl)c(Cl)cc(Cl)c1Cl)[N+](=O)[O-] [--CH2 COOCH3]	active

Test system: Podosphaera leucotricha (E&E) Salm.
Assay: whole plant or invertebrate
Type: in vivo
Conditions: Podosphaera leucotricha, foliar, read-out: Apple Powdery Mildew Percent Disease Control

SMILES	pest or weed control at 500 ppm [%]
Cc1c(Cl)cccc1N[N+](=O)[O-]	84
O=[N+]([O-])Nc1cccc(Cl)c1Cl [drawing 74]	96
O=[N+]([O-])Nc1c(Cl)cccc1Cl [drawing 75]	84
O=[N+]([O-])Nc1cccc(Br)c1 [drawing 77]	84
Cc1cc([N+](=O)[O-])cc(C)c1N[N+](=O)[O-] [drawing 78]	84
O=[N+]([O-])Nc1c(Br)cc(C(F)(F)F)cc1Br [drawing 79]	84
O=[N+]([O-])Nc1ccc(Cl)c(C(F)(F)F)c1 [drawing 80]	84
CC(=O)N(c1c(Cl)c(Cl)cc(Cl)c1Cl)[N+](=O)[O-] [drawing 83]	92

Same assay, conditions: in vivo

SMILES	activity against apple powdery mildew
O=[N+]([O-])Nc1cccc(Cl)c1Cl [2,3-dichlorophenylnitramine]	active
O=[N+]([O-])Nc1c(Cl)cccc1Cl [2,6-dichloro-]	active
Cc1cc([N+](=O)[O-])cc(C)c1N[N+](=O)[O-] [2,6-dimethyl-4-nitro-]	active
O=[N+]([O-])Nc1cccc(Br)c1 [3-bromophenylnitramine]	active
O=[N+]([O-])Nc1cccc(Cl)c1C(F)(F)F [3-chloro-2-trifluoromethyl-]	active
O=[N+]([O-])Nc1ccc(Cl)c(C(F)(F)F)c1 [4-chloro-3-trifluoromethyl-]	active

Test system: Erysiphe graminis f. sp. hordei
Assay: whole plant or invertebrate
Type: in vivo
Conditions: Blumeria graminis, in Hordeum vulgare, foliar, read-out: Barley Powdery Mildew Percent Disease Control

SMILES	pest or weed control at 500 ppm [%]	pest or weed control at 200 ppm [%]	pest or weed control at 50 ppm [%]	pest or weed control at 100 ppm [%]
O=[N+]([O-])Nc1cccc(C(F)(F)F)c1	96	–	–	–
N#Cc1ccc(N[N+](=O)[O-])c(Br)c1	100	–	–	–
CCc1cccc(CC)c1N[N+](=O)[O-]	100	–	–	–
CN(c1c(Br)cccc1Br)[N+](=O)[O-]	89	–	–	–
CC(C)OC(=O)Nc1cc(Cl)c(N[N+](=O)[O-])c(Cl)c1	–	97	–	–
CCN(c1c(Br)cccc1Br)[N+](=O)[O-]	89	–	–	–
O=[N+]([O-])N(Cc1ccccc1)c1c(Br)cccc1Br	100	–	–	–
CC(C)N(c1c(Br)cccc1Br)[N+](=O)[O-]	100	–	–	–
CN(c1c(Cl)c(Cl)cc(Cl)c1Cl)[N+](=O)[O-]	100	–	–	–
O=[N+]([O-])Nc1cc(Cl)c(Cl)c(Cl)c1Cl	84	–	–	–
O=[N+]([O-])Nc1ccc(C(F)(F)F)cc1 [drawing 84]	96	91	84	95
O=[N+]([O-])Nc1c(Cl)c(Cl)cc(Cl)c1Cl [drawing 87]	84	–	48	–
O=[N+]([O-])Nc1cccc(Cl)c1Cl [drawing 89]	100	–	–	–
O=[N+]([O-])Nc1ccc(Cl)cc1Cl [drawing 90]	100	–	–	–
O=[N+]([O-])Nc1c(Cl)cccc1Cl [drawing 91]	100	–	–	–
CS(=O)(=O)c1ccc(N[N+](=O)[O-])cc1 [drawing 93]	100	–	–	–
O=[N+]([O-])Nc1cccc(Br)c1 [drawing 99]	96	–	–	–
Cc1cc([N+](=O)[O-])cc(C)c1N[N+](=O)[O-] [drawing 101]	100	–	–	–
O=[N+]([O-])Nc1c(Br)cc(C(F)(F)F)cc1Br [drawing 102]	100	83	–	–
CC(=O)Nc1cc(Cl)c(N[N+](=O)[O-])c(Cl)c1 [drawing 107]	84	–	–	–
CCC(=O)Nc1cc(Cl)c(N[N+](=O)[O-])c(Cl)c1 [drawing 108]	100	–	–	–
CC(=O)N(c1c(Cl)c(Cl)cc(Cl)c1Cl)[N+](=O)[O-] [drawing 121]	100	95	95	95
COC(=O)CN(c1c(Cl)c(Cl)cc(Cl)c1Cl)[N+](=O)[O-] [drawing 122]	84	–	–	–

Same assay, conditions: in vivo

SMILES	Barley Powdery Mildew Percent Disease Control
O=[N+]([O-])Nc1c(Cl)c(Cl)cc(Cl)c1Cl [drawing 87]	71%
O=[N+]([O-])Nc1c(Cl)c(Cl)cc(Cl)c1Cl [drawing 100]	100% and 95%
CCC(=O)Nc1cc(Cl)c(N[N+](=O)[O-])c(Cl)c1 [drawing 112]	89%
O=[N+]([O-])Nc1c(Cl)c(Cl)cc(Cl)c1Cl [drawing 118]	100%
O=[N+]([O-])Nc1c(Cl)c(Cl)cc(Cl)c1Cl [drawing 123]	98% and 96%

Test system: not listed separately
Assay: Thermal decomposition point (Differential Thermal Analyzer)
Type: physicochemical
Conditions: 20° C./min, onset method
Procedure: By the procedure of Examples 2 and 5 the following novel salts of 2,3,5,6-tetrachloro-N-nitroaniline are prepared as listed in Table II below. The melting points (uncorrected) of said salts are determined on a Thomas Hoover Capillary Melting Point Apparatus; while the thermal decomposition points of said salts are determined on a Dupont 900 Differential Thermal Analyzer. […] Decompositions are recorded by an exothermic response and the temperatures given in Table II below are assessed by the "onset method".

SMILES	Thermal Decomposition Point
O=[N+]([O-])Nc1c(Cl)c(Cl)cc(Cl)c1Cl [K]	272 °C
O=[N+]([O-])Nc1c(Cl)c(Cl)cc(Cl)c1Cl [NH2 (C3 H7)2]	204 °C
O=[N+]([O-])Nc1c(Cl)c(Cl)cc(Cl)c1Cl [NH2 (C4 H9)2]	207 °C
O=[N+]([O-])Nc1c(Cl)c(Cl)cc(Cl)c1Cl [NH2 (C18 H37)2]	168 °C
O=[N+]([O-])Nc1c(Cl)c(Cl)cc(Cl)c1Cl [NH2 (CH2 CH2 OH)2]	173 °C and 177 °C
O=[N+]([O-])Nc1c(Cl)c(Cl)cc(Cl)c1Cl [NH2 (CH2C6 H5)2, dibenzylamine salt of 2,3,5,6-tetrachloro-N-nitroaniline]	183 °C
O=[N+]([O-])Nc1c(Cl)c(Cl)cc(Cl)c1Cl [NH3 (CH2)3 NHC12 H25 -n]	184 °C
O=[N+]([O-])Nc1c(Cl)c(Cl)cc(Cl)c1Cl [NH3 (CH2)8 CHCH(CH2)7 CH3]	157 °C
O=[N+]([O-])Nc1c(Cl)c(Cl)cc(Cl)c1Cl [NH3 C8 H17]	163 °C
O=[N+]([O-])Nc1c(Cl)c(Cl)cc(Cl)c1Cl [NH3 C12 H25 -n]	166 °C
O=[N+]([O-])Nc1c(Cl)c(Cl)cc(Cl)c1Cl [NH3 C16 H33]	148.5 °C
O=[N+]([O-])Nc1c(Cl)c(Cl)cc(Cl)c1Cl [NH3 CH2 CH2 NH2]	208 °C
O=[N+]([O-])Nc1c(Cl)c(Cl)cc(Cl)c1Cl [NH3 CH2 CH2 OH, ethanolamine salt of 2,3,5,6-tetrachloro-N-nitroaniline]	203 °C
O=[N+]([O-])Nc1c(Cl)c(Cl)cc(Cl)c1Cl [NH3 CH3]	183 °C
O=[N+]([O-])Nc1c(Cl)c(Cl)cc(Cl)c1Cl [NH4]	178 °C
O=[N+]([O-])Nc1c(Cl)c(Cl)cc(Cl)c1Cl [NH(C2 H5)3]	169 °C
O=[N+]([O-])Nc1c(Cl)c(Cl)cc(Cl)c1Cl [NH(C3 H7)3]	154 °C
O=[N+]([O-])Nc1c(Cl)c(Cl)cc(Cl)c1Cl [NH(CH2 CH2 OH)3]	150 °C
O=[N+]([O-])Nc1c(Cl)c(Cl)cc(Cl)c1Cl [NH(CH3)2 . C6 H5, N,N-dimethylaniline salt of 2,3,5,6-tetrachloro-N-nitroaniline]	128 °C
O=[N+]([O-])Nc1c(Cl)c(Cl)cc(Cl)c1Cl [NHC18 H37 . (CH2 CH2 O)2 H . (CH2 CH2 O)3 H]	153-157 °C
O=[N+]([O-])Nc1c(Cl)c(Cl)cc(Cl)c1Cl [drawing 21]	176 °C
O=[N+]([O-])Nc1c(Cl)c(Cl)cc(Cl)c1Cl [drawing 22]	143 °C
O=[N+]([O-])Nc1c(Cl)c(Cl)cc(Cl)c1Cl [drawing 23]	163 °C
O=[N+]([O-])Nc1c(Cl)c(Cl)cc(Cl)c1Cl [drawing 24]	138 °C
O=[N+]([O-])Nc1c(Cl)c(Cl)cc(Cl)c1Cl [drawing 25]	173 °C
O=[N+]([O-])Nc1c(Cl)c(Cl)cc(Cl)c1Cl [drawing 26]	203 °C
